Measurements published in publication PMC7753040, “Discovery of a Potent RIPK3 Inhibitor for the Amelioration of Necroptosis-Associated Inflammatory Injury” (Frontiers in Cell and Developmental Biology, 2020).
Like-named read-outs stand apart in the source and are kept apart here.

What was measured:
[1] = Metabolic stability in rat liver microsomes; assay type: in vitro ADME
CYP2C9 = CYP2C9 (Homo sapiens, UniProt P11712); test: Cytochrome P450 inhibition, CYP2C9; assay type: in vitro ADME
Procedure: (§1) Cytochrome P450 (CYP) inhibitory potency was determined by industrial standard methods as reported previously ([Dong et al., 2015]). Methods to determine potassium channel hERG inhibition and in vivo pharmacokinetic parameters have been previously published ([Lu et al., 2017]).

human RIPK3 = target: T1, human RIPK3 (Homo sapiens, UniProt Q9Y572); test: In vitro kinase activity assay (ADP-Glo), RIPK3; assay type: biochemical; details: ATP 50 μM, MBP 20 μM; compared to GSK’872
T1 construct: purchased SignalChem
T1 sequence (Q9Y572 whole entry): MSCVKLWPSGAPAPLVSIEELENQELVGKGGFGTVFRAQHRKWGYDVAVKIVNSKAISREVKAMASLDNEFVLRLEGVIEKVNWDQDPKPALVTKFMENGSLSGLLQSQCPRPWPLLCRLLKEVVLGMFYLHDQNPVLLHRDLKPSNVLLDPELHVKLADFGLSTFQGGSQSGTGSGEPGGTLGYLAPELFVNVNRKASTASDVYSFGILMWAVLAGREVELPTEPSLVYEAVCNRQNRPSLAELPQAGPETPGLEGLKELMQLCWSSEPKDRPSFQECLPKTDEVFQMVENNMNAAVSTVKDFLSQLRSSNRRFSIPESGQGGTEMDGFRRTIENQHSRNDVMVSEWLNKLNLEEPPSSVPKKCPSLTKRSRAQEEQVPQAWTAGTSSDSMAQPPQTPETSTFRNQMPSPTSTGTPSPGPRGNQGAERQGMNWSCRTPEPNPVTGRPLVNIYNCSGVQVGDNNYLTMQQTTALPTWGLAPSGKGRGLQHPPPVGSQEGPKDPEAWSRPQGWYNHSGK
Procedure: (§2) The recombinant human RIPK1 or RIPK3 protein was incubated with the control DMSO or the indicated compound for around 15 min in the assay buffer (25 mM HEPES PH7.2, 12.5 mM MnCl2, 5 mM EGTA, 20 mM MgCl2, 12.5 mM β-glycerol phosphate, 2 mM EDTA, and 2 mM DTT). ATP (50 μM) and the substrate MBP (20 μM) were then added to the reaction at room temperature for 2 h. The kinase activity was calculated by the measuring the luminescence after the addition of the ADP-Glo Kinase Assay kit according to the manufacture’s instructions (Promega).
(§3) In vitro kinase activity assays using recombinant RIPK3 and RIPK1 were performed as described in the section “Materials and Methods.” Data represent mean value ± standard deviation. […] NIH3T3-RIPK3 cells were pretreated with indicated compounds for 2 h and subsequently treated with AP20187 (60 nM) for 24 h. Cell viability was determined by measuring ATP levels. […] HeLa-MLKL (1–190) cells were induced by doxycycline (1 μg/ml) for 24 h. Cells were pretreated with indicated compounds for 2 h and subsequently treated with AP20187 (60nM) for 24h. Cell viability was determined by measuring ATP levels. […] (F) MEFs were treated as indicated for 3 h. Cell lysates were harvest and subjected to western-blot analysis for full length and cleaved caspase 3.

HSV-1 ICP6 = test: Expression of viral gene ICP6 after HSV-1 infection of L929 cells (real-time PCR); assay type: cell-based, herpes simplex virus (HSV)-1; details: culture supernatants 5 h post HSV-1 infection
Procedure: Total RNA was extracted using TRIzol Reagent (Invitrogen) from cell pellets. cDNA was synthesized using a Revert Aid First Strand cDNA kit (Thermo Fisher Scientifc). Real-time PCR was performed using corresponding primers and Power SYBR® Green PCR Master Mix (Invitrogen). The data were normalized to GAPDH. The primer sequences are as follows: ICP6 Forward: […] , Reverse: GGT […]; TNFα Forward: […] , Reverse: […]; CCL3 Forward: […] , Reverse: […]; CXCL1 Forward: GCACCC […] , Reverse: […] CAGA; GAPDH Forward: […] , Reverse: […] .
(§4) Cell viability was determined by measuring ATP levels. L, LPS; Z, z-VAD. […] After 5 h, cell viability was determined by measuring ATP levels and ICP6 mRNA expression was detected using viral genome extracted from cell culture supernatant. *P < 0.05. **P < 0.01. ***P < 0.001.

hERG = hERG (Homo sapiens, UniProt Q12809); test: hERG inhibition (standard patch clamp); assay type: cell-based
Sequence of hERG (Q12809 whole entry): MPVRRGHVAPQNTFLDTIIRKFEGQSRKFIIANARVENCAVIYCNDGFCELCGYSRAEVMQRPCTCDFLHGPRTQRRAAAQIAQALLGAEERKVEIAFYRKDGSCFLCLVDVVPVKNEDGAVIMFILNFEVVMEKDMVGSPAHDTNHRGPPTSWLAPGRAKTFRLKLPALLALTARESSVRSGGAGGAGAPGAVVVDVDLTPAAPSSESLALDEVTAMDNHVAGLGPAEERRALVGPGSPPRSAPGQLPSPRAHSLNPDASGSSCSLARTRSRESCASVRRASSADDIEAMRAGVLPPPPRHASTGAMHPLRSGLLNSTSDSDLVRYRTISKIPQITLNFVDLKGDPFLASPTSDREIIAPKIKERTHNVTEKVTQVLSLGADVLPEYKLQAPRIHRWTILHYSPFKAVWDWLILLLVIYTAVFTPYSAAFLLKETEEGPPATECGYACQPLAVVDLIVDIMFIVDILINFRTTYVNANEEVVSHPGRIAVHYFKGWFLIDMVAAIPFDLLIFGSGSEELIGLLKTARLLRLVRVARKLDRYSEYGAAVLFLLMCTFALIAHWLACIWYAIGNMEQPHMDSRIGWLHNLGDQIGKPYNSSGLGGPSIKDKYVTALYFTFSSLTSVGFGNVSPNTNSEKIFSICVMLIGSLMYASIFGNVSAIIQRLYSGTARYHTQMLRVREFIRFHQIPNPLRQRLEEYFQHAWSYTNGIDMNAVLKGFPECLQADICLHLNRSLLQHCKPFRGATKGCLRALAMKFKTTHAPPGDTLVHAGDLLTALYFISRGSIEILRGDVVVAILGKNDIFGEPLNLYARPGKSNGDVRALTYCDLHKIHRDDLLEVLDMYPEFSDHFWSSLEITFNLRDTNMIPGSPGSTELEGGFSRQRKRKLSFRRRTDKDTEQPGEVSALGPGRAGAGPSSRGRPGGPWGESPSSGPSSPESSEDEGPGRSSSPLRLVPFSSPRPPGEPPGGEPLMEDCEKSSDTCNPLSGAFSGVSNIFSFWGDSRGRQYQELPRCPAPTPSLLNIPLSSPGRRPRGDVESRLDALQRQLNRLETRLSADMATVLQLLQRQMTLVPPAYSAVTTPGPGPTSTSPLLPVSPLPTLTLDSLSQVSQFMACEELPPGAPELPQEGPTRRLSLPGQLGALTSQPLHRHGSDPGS
Procedure: as §1

[2] = Metabolic stability in mouse liver microsomes; assay type: in vitro ADME; details: mouse liver microsomes (MLM)
NIH3T3-RIPK3 cells = test: RIPK3 dimerization-induced cell death in NIH3T3-RIPK3 cells (AP20187); assay type: cell-based, mouse; details: 2 h pretreatment, AP20187 60 nM 24 h
Text: (§5) Human colon cancer HT-29 and mouse fibrosarcoma L929 cells were from ATCC. Mouse embryonic fibroblasts (MEF), HT-29 cells stably expressing RIPK3-shRNA and shRNA resistant scramble Flag-tagged RIPK3 (W46), and NIH3T3 cell line stably expressing RIPK3 fused to mutant FK506-binding protein (NIH3T3-RIPK3) were kindly provided by Dr. Xiaodong Wang [National Institute of Biological Sciences (NIBS), Beijing]. HeLa-MLKL (1-190) cell line was a gift from Dr. Zhigao Wang (University of Texas Southwestern Medical Center at Dallas). These cells were cultured in Dulbecco’s modified Eagle’s medium (Hyclone) supplemeted with 10% fetal bovine serum (Invitrogen) and 2 mM L-glutamine (Invitrogen) in a humidified incubator at 37°C and 5% CO2. […]
(§6) Cells were seeded in 96-well plates and then treated as indicated. The cell viability was determined by assessment of ATP levels using the CellTiter-Glo Luminescent Cell Viability Assay kit following the manufacture’s instructions (Promega). Luminescence was calculated with SpectraMax i3x (Molecular Devices).
(§7) In vitro kinase activity assays using recombinant RIPK3 and RIPK1 were performed as described in the section “Materials and Methods.” Data represent mean value ± standard deviation. […] Cell viability was determined by measuring ATP levels. […] Cell viability was determined by measuring ATP levels. […]

HT-29 cells = test: TNF-induced necroptosis in HT-29 cells (cell viability, ATP levels); assay type: cell-based, human; details: 2 h pretreatment, then TNF-α 40 ng/ml, Smac mimetic 100 nM, z-VAD 20 μM for 48 h, focused library, compared to GSK’872
Procedure: as §6
To discover novel inhibitors of necroptosis, we designed and synthesized a focused library with novel structures based on the GSK’872 scaffold.
Cell viability was assessed by measuring ATP levels. […] T, TNF-α; S, Smac mimetic; Z, z-VAD.

human RIPK1 = target: T2, human RIPK1 (Homo sapiens, UniProt Q13546); test: In vitro kinase activity assay (ADP-Glo), RIPK1; assay type: biochemical; details: at 10 μM; ATP 50 μM, MBP 20 μM
T2 construct: purchased SignalChem
T2 sequence (Q13546 1-327 limits assumed): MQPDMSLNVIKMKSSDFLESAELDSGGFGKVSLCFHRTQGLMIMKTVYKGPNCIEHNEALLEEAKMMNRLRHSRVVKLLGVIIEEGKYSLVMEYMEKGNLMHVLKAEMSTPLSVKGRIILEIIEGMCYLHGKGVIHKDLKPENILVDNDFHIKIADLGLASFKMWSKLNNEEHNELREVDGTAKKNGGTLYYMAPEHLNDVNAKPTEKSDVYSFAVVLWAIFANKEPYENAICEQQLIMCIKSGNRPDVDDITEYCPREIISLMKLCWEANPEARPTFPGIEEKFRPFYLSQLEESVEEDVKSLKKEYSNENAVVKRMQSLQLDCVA
Procedure: as §2, §3

[3] = Metabolic stability in human liver microsomes; assay type: in vitro ADME
Text: Encouraged by the in vitro and in vivo efficacy data, we sought to evaluate the preliminary drugability profile of Zharp-99.
(§8) (C) Pharmacokinetic parameters of Zharp-99 determined in male ICR mouse.

RIPK1/RIPK3 complex = target: T3, RIPK1/RIPK3 complex (Homo sapiens, UniProt Q9Y572); test: RIPK1/RIPK3 necrosome formation in HT-29 cells stably expressing Flag-RIPK3 (immunoprecipitation); assay type: cell-based; details: TNF-α/Smac/z-VAD 8 h
T3 construct: expressed in transfected cells; host or cells: HT-29 (W46), gift of Dr. Xiaodong Wang
Procedure: (§9) The cell pellets were harvested and dissolved in lysis buffer (20 mM Tris–HCl, pH 7.4 150 mM NaCl, 1% Triton X-100, 1 mM Na3VO4, 10% glycerol, 25 mM β-glycerol-phosphate, 0.1 mM PMSF, with the Sigma phosphatase inhibitors and the Roche Pierce protease inhibitor set). The re-suspended cell pellet was then incubated on ice for 20 min, followed by centrifugation at 13000 × g for 20 min at 4°C. The supernatants were collected and protein concentrations were measured using the BCA Protein Assay Kit (Thermo Fisher Scientifc, United States). Finally, cell lysates were subjected for western-blot analysis of the indicated antibodies.
(§10) Cell lysates were prepared for immunoprecipitation using an anti-Flag antibody. The levels of RIPK3 and RIPK1 in the immunocomplex were determined by western blot analysis.

CYP1A2 = CYP1A2 (Homo sapiens, UniProt P05177); test: Cytochrome P450 inhibition, CYP1A2; assay type: in vitro ADME
Sequence of CYP1A2 (P05177 whole entry): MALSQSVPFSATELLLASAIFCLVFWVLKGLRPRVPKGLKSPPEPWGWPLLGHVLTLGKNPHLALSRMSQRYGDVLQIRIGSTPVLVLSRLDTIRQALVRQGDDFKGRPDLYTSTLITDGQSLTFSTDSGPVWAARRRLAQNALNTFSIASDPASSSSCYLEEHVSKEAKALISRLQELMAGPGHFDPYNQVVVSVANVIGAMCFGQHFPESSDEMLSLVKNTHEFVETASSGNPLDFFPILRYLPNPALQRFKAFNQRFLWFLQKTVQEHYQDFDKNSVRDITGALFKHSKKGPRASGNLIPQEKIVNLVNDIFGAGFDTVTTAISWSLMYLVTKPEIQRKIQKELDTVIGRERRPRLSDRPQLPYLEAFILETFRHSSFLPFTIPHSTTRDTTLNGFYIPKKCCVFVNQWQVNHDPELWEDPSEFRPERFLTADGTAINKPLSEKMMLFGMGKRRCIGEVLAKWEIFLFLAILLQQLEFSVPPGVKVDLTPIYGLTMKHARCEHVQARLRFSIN
Procedure: as §1

[4] = system: phosphorylation of RIPK1, RIPK3, and MLKL; test: Western blot of phosphorylation of RIPK1, RIPK3 and MLKL in HT-29 cells upon necroptotic stimuli; assay type: cell-based, human; details: 2 h pretreatment, TNF-α/Smac mimetic/z-VAD 8 h
Procedure: as §9, §10

[5] = In vivo mouse pharmacokinetic study; details: male ICR mouse
Procedure: as §1, §8

[6] = system: phosphorylation of RIPK1, RIPK3, and MLKL; test: Western blot of phosphorylation of RIPK1, RIPK3 and MLKL in L929 cells upon necroptotic stimuli; assay type: cell-based, mouse; details: 2 h pretreatment, TNF-α/z-VAD 4 h
Procedure: as §9, §10

[7] = system: mouse bone marrow derived macrophages; test: TLR4-mediated necroptosis induced by LPS/z-VAD in mouse bone marrow-derived macrophages; assay type: cell-based; details: mouse BMDM; 2 h pretreatment, LPS 20 ng/ml plus z-VAD for 24 h
Text: as §5, with “CO2. NIH3T3-RIPK3 was cultured in complete medium containing […] G418 (Calbiochem).” for “CO2.”
as §6
(§11) Cell viability was determined by measuring ATP levels. […] After 5 h, cell viability was determined by measuring ATP levels and ICP6 mRNA expression was detected using viral genome extracted from cell culture supernatant. *P < 0.05. **P < 0.01. ***P < 0.001.

CYP3A4 = CYP3A4 (Homo sapiens, UniProt P08684); test: Cytochrome P450 inhibition, CYP3A4; assay type: in vitro ADME
Sequence of CYP3A4 (P08684 whole entry): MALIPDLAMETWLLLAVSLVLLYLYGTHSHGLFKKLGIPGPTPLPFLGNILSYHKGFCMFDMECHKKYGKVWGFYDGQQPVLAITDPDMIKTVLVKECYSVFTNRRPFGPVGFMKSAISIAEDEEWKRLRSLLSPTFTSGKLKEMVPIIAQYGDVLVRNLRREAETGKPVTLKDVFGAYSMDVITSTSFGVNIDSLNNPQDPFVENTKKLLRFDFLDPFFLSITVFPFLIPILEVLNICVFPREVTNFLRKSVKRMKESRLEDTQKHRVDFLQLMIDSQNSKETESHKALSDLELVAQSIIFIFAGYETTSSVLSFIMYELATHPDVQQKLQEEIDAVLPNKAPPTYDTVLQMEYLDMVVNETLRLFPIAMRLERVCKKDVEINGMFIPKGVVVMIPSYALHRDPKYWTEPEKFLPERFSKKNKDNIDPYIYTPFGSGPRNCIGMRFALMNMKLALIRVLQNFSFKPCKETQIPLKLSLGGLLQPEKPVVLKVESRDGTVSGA
Procedure: as §1

CYP2C19 = CYP2C19 (Homo sapiens, UniProt P33261); test: Cytochrome P450 inhibition, CYP2C19; assay type: in vitro ADME
Sequence of CYP2C19 (P33261 whole entry): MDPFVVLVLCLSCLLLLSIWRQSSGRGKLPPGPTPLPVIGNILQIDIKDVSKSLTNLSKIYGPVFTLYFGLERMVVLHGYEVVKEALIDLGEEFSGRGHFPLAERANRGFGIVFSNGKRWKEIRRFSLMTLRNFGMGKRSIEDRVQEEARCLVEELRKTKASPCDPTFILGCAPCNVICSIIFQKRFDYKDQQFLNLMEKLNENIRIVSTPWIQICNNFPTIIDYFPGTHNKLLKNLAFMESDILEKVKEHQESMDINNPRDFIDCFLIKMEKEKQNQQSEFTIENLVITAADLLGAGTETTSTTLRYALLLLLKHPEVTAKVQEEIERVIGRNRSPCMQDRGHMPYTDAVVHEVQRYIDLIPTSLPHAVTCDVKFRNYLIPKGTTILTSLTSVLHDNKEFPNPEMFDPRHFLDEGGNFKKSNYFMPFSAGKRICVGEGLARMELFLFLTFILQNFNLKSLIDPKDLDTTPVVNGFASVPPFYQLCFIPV
Procedure: as §1

mouse BMDM = test: LPS/z-VAD-induced expression of inflammatory cytokines in mouse BMDM (Q-PCR); assay type: cell-based; details: 2 h pretreatment, LPS 20 ng/ml plus z-VAD 20 μM, 7 h, mRNA
Procedure: Total RNA was extracted using TRIzol Reagent (Invitrogen) from cell pellets. cDNA was synthesized using a Revert Aid First Strand cDNA kit (Thermo Fisher Scientifc). Real-time PCR was performed using corresponding primers and Power SYBR® Green PCR Master Mix (Invitrogen). The data were normalized to GAPDH. The primer sequences are as follows: ICP6 Forward: […], Reverse: GGT […]; TNFα Forward: […], Reverse: […]; CCL3 Forward: […], Reverse: […]; CXCL1 Forward: GCACCC […], Reverse: […] CAGA; GAPDH Forward: […], Reverse: […].

L929 cells = test: HSV-1-induced necroptosis in L929 cells (cell viability); assay type: cell-based, mouse; details: 2 h pretreatment, 24 h after HSV-1 infection
Procedure: as §6, §4

C57BL/6 mice = test: TNF-induced systemic inflammatory response syndrome in mice
Procedure: The status of mice was monitored by measuring anal temperature. Mice mortality was continuously monitored till 60 h after TNF-α administration. Blood was collected 4 h post TNF-α challenge and serum was isolated for further examination.
(A,B) The survival rate (A) and body temperature loss (B) were monitored. […] P-values were determined using the ONE-way ANOVA and multi-comparison test for statistics analysis. (C) After 4 h, serum was collected for mouse IL6 level analysis by ELISA. Data are represented as the mean ± standard deviation.

MEFs = test: Activation of caspase-3 / apoptosis in MEFs (western blot, cell viability); assay type: cell-based
Procedure: as §3

[8] = system: rat bone marrow derived macrophages; test: TLR4-mediated necroptosis induced by LPS/z-VAD in rat bone marrow-derived macrophages; assay type: cell-based; details: rat BMDM; 2 h pretreatment, LPS 20 ng/ml plus z-VAD for 24 h
Text: as §5, with “CO2. NIH3T3-RIPK3 was cultured in complete medium containing […] G418 (Calbiochem).” for “CO2.”
as §6, §11

HeLa-MLKL (1–190) cells = test: MLKL polymerization-induced necroptosis in HeLa-MLKL (1-190) cells (AP20187); assay type: cell-based, human; details: doxycycline 1 μg/ml 24 h, 2 h pretreatment, AP20187 60 nM 24 h
Text: as §5, §6, §7

CYP2D6 = CYP2D6 (Homo sapiens, UniProt P10635); test: Cytochrome P450 inhibition, CYP2D6; assay type: in vitro ADME
Sequence of CYP2D6 (P10635 whole entry): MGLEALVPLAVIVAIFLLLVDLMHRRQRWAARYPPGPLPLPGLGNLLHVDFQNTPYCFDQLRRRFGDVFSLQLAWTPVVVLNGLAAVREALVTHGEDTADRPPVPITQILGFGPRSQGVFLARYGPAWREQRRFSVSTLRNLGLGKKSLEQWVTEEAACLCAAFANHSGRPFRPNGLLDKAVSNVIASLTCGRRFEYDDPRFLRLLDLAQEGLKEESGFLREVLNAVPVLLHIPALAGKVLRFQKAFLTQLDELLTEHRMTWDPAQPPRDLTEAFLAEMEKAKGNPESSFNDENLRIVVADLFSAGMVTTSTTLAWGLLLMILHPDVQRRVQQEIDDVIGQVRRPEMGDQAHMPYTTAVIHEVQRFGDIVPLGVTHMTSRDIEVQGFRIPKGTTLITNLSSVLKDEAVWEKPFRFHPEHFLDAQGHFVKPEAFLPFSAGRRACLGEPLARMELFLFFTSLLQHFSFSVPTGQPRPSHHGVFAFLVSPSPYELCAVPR
Procedure: as §1

[9] = 5 mg/kg i.p. 15 min before mouse TNF-α 6.5 μg/mouse i.v.

Sequence of CYP2C9 (P11712 whole entry): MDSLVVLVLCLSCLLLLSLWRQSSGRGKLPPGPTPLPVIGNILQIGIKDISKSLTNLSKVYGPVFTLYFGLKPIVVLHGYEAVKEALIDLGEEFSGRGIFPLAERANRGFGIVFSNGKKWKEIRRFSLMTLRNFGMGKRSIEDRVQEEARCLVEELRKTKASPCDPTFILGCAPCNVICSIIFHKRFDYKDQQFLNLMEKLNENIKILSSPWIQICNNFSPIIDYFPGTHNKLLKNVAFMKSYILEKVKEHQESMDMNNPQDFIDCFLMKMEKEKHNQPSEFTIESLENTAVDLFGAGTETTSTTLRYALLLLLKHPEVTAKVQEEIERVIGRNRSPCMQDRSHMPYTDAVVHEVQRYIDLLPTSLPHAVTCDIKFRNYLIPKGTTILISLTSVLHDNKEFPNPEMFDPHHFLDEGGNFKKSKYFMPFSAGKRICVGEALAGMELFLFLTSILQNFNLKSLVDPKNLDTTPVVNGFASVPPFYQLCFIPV

## O=S1(=O)C=C(C2CC2)c2cc3nccc(Nc4ccc5scnc5c4)c3cc21 [Zharp-99]
[1]; rat liver microsomes
  CLint scaled: 67 mL/min/kg
  Clint: moderate
[1]; rat liver microsomes (RLM)
  half-life: 37 min
CYP2C9; 10 μM
  % of CYP inhibiton 2C9: did not inhibit
CYP2C9; human, read-out: % of CYP inhibiton 2C9
  inhibition at 10 µM: -5.59%
Human RIPK3
  inhibition of the kinase activity of human RIPK3 in vitro: higher inhibitory activity compared to GSK’872
HSV-1 ICP6
  effect on expression of viral gene ICP6: did not affect
hERG
  IC50: > 10 µM
[2]
  half-life: 26 min
NIH3T3-RIPK3 cells
  RIPK3 dimerization-induced necroptosis: efficiently blocked
HT-29 cells
  inhibition of TNF-induced necroptosis: most efficient inhibitor
Human RIPK1
  effect on RIPK1 kinase activity: did not affect
[3]
  CLint scaled: 63 mL/min/kg
  Clint: moderate
  half-life: 28 min
RIPK1/RIPK3 complex
  RIPK1/RIPK3 necrosome formation: did not affect
CYP1A2; 10 μM
  % of CYP inhibiton 1A2: did not inhibit
CYP1A2; human, read-out: % of CYP inhibiton 1A2
  inhibition at 10 µM: 9.26%
[4]
  RIPK1 phosphorylation at S166: did not reduce
  phosphorylation of MLKL: abolished
  phosphorylation of RIPK3: abolished
[5]; 2 mg/kg (iv)
  Cmax: 1390 ng/mL
  half-life: 90 min
[5]; 2 mg/kg (iv), read-out: AUC
  AUC: 990 ng·h/mL
[5]; 2 mg/kg (iv), read-out: CL (clearance)
  clearance: 33 mL/min/kg
[5]; 2 mg/kg (iv), read-out: Vz (volume of distribution)
  Vd: 4.4 L/kg
[5]; 10 mg/kg (po)
  Cmax: 2650 ng/mL
  Tmax: 60 min
  half-life: 72 min
[5]; 10 mg/kg (po), read-out: AUC (exposure)
  AUC: 8220 ng·h/mL
[6]
  phosphorylation of MLKL: blocked
  phosphorylation of RIPK3: blocked
[7]
  inhibition of TLR4-mediated necroptosis induced by LPS/z-VAD: potently blocked
CYP3A4; 10 μM
  % of CYP inhibiton CYP3A4: did not inhibit
CYP3A4; human, read-out: % of CYP inhibiton CYP3A4
  inhibition at 10 µM: 5.04%
CYP2C19; 10 μM
  % of CYP inhibiton 2C19: did not inhibit
CYP2C19; human, read-out: % of CYP inhibiton 2C19
  inhibition at 10 µM: 4.15%
Mouse BMDM
  LPS/z-VAD-induced expression of inflammatory cytokines including TNFα, CCL3, and CXCL1: could inhibit
L929 cells
  inhibition of HSV-1 induced necroptosis: significantly inhibited
C57BL/6 mice; [9]
  TNFα-induced temperature loss: ameliorated
  protection against TNFα-induced lethal shock (survival): significantly protected
C57BL/6 mice; 5 mg/kg i.p., serum 4 h post TNF-α, ELISA
  TNFα-induced production of IL-6 in the serum: reduced
MEFs; MEFs
  induction of apoptosis compared to GSK’872: more potent
MEFs; especially in mouse cells, MEFs treated 3 h (western blot)
  activation of caspase-3 and cell death: induced activation of caspase-3 and cell death in a dose-dependent manner
[8]
  inhibition of TLR4-mediated necroptosis induced by LPS/z-VAD: potently blocked
HeLa-MLKL (1–190) cells
  polymerized MLKL-induced necroptosis: did not affect
CYP2D6; 10 μM
  % of CYP inhibiton 2D6: did not inhibit
CYP2D6; human, read-out: % of CYP inhibiton 2D6
  inhibition at 10 µM: -0.44%
